Assay results as given in patent EP0178388A1, “Quinolinecarboxylic acid derivatives” (KYORIN PHARMACEUTICAL CO., LTD., priority 1984, dated 1986).
Converted amounts (≈) assume the structure as drawn. Structures can show the parent of a compound that is named as a salt. Where two headings read alike, the source gives them in different places.

What was measured:
[1] = tested on: Peptostreptococcus anaerobius KYA 27337; assay: In vitro antibacterial activity, MIC (standard strain); format: cell-based; details: KYA27337, Peptostreptococcus anaerobius KYA 27337, 10^6 cells/ml
[2] = tested on: S. pyogenes 4372; assay: In vitro antibacterial activity, MIC (clinical isolates); format: cell-based; details: Streptococcus pyogenes; S. pyogenes 4372, 10^6 cells/ml, clinical isolate
[3] = tested on: Enterobacter cloacae IID 977; assay: In vitro antibacterial activity, MIC (standard strain); format: cell-based; details: IID977, Enterobacter cloacae IID 977, 10^6 cells/ml
[4] = tested on: Serratia marcescens IID 618; assay: as above; format: cell-based; details: IID618, Serratia marcescens IID 618, 10^6 cells/ml, read-out: MIC
[5] = tested on: Bacillus subtilis PCI 219; assay: as above; format: cell-based; details: PCI219; Bacillus subtilis PCI 219, 10^6 cells/ml, standard strain; read-out: MIC
[6] = tested on: S. agalactiae 4342; assay: In vitro antibacterial activity, MIC (clinical isolates); format: cell-based; details: Streptococcus agalactiae; S. agalactiae 4342, 10^6 cells/ml, clinical isolate
[7] = tested on: S. pneumoniae IID 552; assay: In vitro antibacterial activity, MIC (standard strain); format: cell-based; details: Streptococcus pneumoniae, IID552, S. pneumoniae IID 552, 10^6 cells/ml
[8] = tested on: S. aureus IID 670 (Terajima); assay: as above; format: cell-based; details: Staphylococcus aureus, IID670, 10^6 cells/ml
[9] = tested on: S. pneumoniae 2054; assay: In vitro antibacterial activity, MIC (clinical isolates); format: cell-based; details: Streptococcus pneumoniae; S. pneumoniae 2054, 10^6 cells/ml, clinical isolate
[10] = tested on: Pseudomonas aeruginosa V-1; assay: In vitro antibacterial activity, MIC (standard strain); format: cell-based; details: V1; Pseudomonas aeruginosa V-1, 10^6 cells/ml, standard strain; read-out: MIC
[11] = tested on: Acinetobacter anitratus IID 876; assay: as above; format: cell-based; details: Acinetobacter calcoaceticus, IID876; Acinetobacter anitratus IID 876, 10^6 cells/ml, standard strain; read-out: MIC
[12] = tested on: Propionibacterium acens 11828; assay: as above; format: cell-based; details: Propionibacterium acens 11828, 10^6 cells/ml
[13] = tested on: S. epidermidis IID 866; assay: as above; format: cell-based; details: Staphylococcus epidermidis, IID866, S. epidermidis IID 866, 10^6 cells/ml
[14] = tested on: Peptococcus magnus KY 017; assay: as above; format: cell-based; details: Finegoldia magna, KY017, Peptococcus magnus KY 017, 10^6 cells/ml
[15] = tested on: P. morganii IID 602; assay: as above; format: cell-based; details: Morganella morganii, IID602; P. morganii IID 602, 10^6 cells/ml, standard strain; read-out: MIC
[16] = tested on: S. aureus Smith; assay: MIC against the infecting strain (Table 2); format: cell-based; details: Staphylococcus aureus; S. aureus Smith (Table 2, part 5)
[17] = tested on: Veillonella parvula KYA 10790; assay: In vitro antibacterial activity, MIC (standard strain); format: cell-based; details: KYA10790, Veillonella parvula KYA 10790, 10^6 cells/ml
[18] = tested on: Fusobacterium necrophorum S-45; assay: as above; format: cell-based; details: S45, Fusobacterium necrophorum S-45, 10^6 cells/ml
[19] = tested on: E. coli ML4707; assay: In vivo antibacterial activity against systemic infection in mice;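 also: ED50 in mg/kg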; details: Escherichia coli, ML4707, po, 1 h, E. coli ML4707, mice (ICR-S), intraperitoneal infection, oral at 1 hour after infection, read-out: ED50
Experimental: Experiment 2 In vivo antibacterial activity against systemic infection in mice (ICR-S)
The infections were produced by intraperitoneal infection of a suspension of the bacterial culture corresponding to the germ studied. The product was administered orally at 1 hour after the infection. The 50% effective dose (ED50) which protects 50% of the animals from death caused by the infection was determined from the relation between dosage and survival rate.

[20] = tested on: F. varium KYA (ATCC) 8501; assay: In vitro antibacterial activity, MIC (standard strain); format: cell-based; details: Fusobacterium varium, F. varium KYA (ATCC) 8501, 10^6 cells/ml
[21] = tested on: E. coli ML4707; assay: MIC against the infecting strain (Table 2); format: cell-based; details: Escherichia coli; E. coli ML4707 (Table 2, parts 1 and 2)
Experimental: The in vitro antibacterial activity has been investigated, the minimun inhibitory concentration (MIC) was determined in accordance with the method recommended by Japan Society of Chemotherapy.

[22] = tested on: S. pneumoniae 3227; assay: In vitro antibacterial activity, MIC (clinical isolates); format: cell-based; details: Streptococcus pneumoniae; S. pneumoniae 3227, 10^6 cells/ml, clinical isolate
[23] = tested on: Pst. micros UPI 5464-1; assay: In vitro antibacterial activity, MIC (standard strain); format: cell-based; details: Parvimonas micra, UPI54641, Pst. micros UPI 5464-1, 10^6 cells/ml
[24] = tested on: Salmonella enteritidis IID 604; assay: as above; format: cell-based; details: Salmonella enterica; Salmonella enteritidis IID 604, 10^6 cells/ml, standard strain; read-out: MIC
[25] = tested on: B. fragilis 25285; assay: as above; format: cell-based; details: Bacteroides fragilis; B. fragilis 25285, 10^6 cells/ml, standard strain; read-out: MIC
[26] = tested on: Eubacterium lentum GAI 5242; assay: as above; format: cell-based; details: Eggerthella lenta, GAI5242, Eubacterium lentum GAI 5242, 10^6 cells/ml
[27] = tested on: P. aeruginosa IID 1210; assay: MIC against the infecting strain (Table 2); format: cell-based; details: Pseudomonas aeruginosa, IID1210; P. aeruginosa IID 1210 (Table 2, part 3)
[28] = tested on: C. ramosum; assay: In vitro antibacterial activity, MIC (standard strain); format: cell-based; details: Thomasclavelia ramosa; C. ramosum, 10^6 cells/ml, standard strain; read-out: MIC
[29] = tested on: Staphylococcus aureus 209 P; assay: as above; format: cell-based; details: 10^6 cells/ml, read-out: MIC
[30] = tested on: B. distasonis 8503; assay: as above; format: cell-based; details: Parabacteroides distasonis, B. distasonis 8503, 10^6 cells/ml
[31] = challenge dose 8.3 x 10^6 cfu/mouse (part 2)

Row | Structure (SMILES) | MIC [1] | MIC [2] | MIC [3] | MIC [4] | MIC [5] | MIC [6] | MIC [7] | MIC [8] | MIC [9] | MIC [10] | MIC [11] | MIC [13] | MIC [15] | MIC [17] | ED50 [19, 31] | MIC [20] | MIC [21] | MIC [22] | MIC [23] | MIC [24] | further results
1 | CC1CN(c2c(F)cc3c(=O)c(C(=O)O)cn(C4CC4)c3c2Cl)CCN1 (stereo not drawn) [Example 5, 8-Chloro-l-cyclopropyl-6-fluoro-1,4-dihydro-7-(3-methyl-1-piperazinyl)-4-oxoquinoline-3-carboxylic acid hydrochloride] | 0.39 µg/mL | 0.39 µg/mL | 0.05 µg/mL | 0.05 µg/mL | 0.025 µg/mL | 0.78 µg/mL | 0.78 µg/mL | 0.1 µg/mL | 0.78 µg/mL | 0.78 µg/mL | 0.05 µg/mL | 0.1 µg/mL | 0.1 µg/mL | 0.2 µg/mL | 0.12 mg/kg | 3.13 µg/mL | 0.0125 µg/mL | 0.78 µg/mL | 0.2 µg/mL | 0.025 µg/mL | MIC [12]: 0.39 µg/mL; MIC [14]: 0.1 µg/mL; MIC [16]: 0.1 µg/mL; MIC [18]: 0.39 µg/mL; MIC [25]: 0.39 µg/mL; MIC [26]: 0.39 µg/mL; MIC [27]: 0.78 µg/mL; MIC [28]: 3.13 µg/mL; MIC [29]: 0.1 µg/mL
2 | CC1CN(c2c(F)cc3c(=O)c(C(=O)O)cn(C4CC4)c3c2F)CCN1 (stereo not drawn) [Example 2, l-Cyclopropyl-6,8-difluoro-l,4-dihydro-7-(3-methyl-l-piperazinyl)-4-oxoquinoline-3-carboxylic acid] | 1.56 µg/mL (≈ 4.29 µM) | 0.78 µg/mL (≈ 2.15 µM) | 0.05 µg/mL (≈ 0.138 µM) | 0.05 µg/mL (≈ 0.138 µM) | 0.05 µg/mL (≈ 0.138 µM) | 0.78 µg/mL (≈ 2.15 µM) | 0.78 µg/mL (≈ 2.15 µM) | 0.2 µg/mL (≈ 0.55 µM) | 1.56 µg/mL (≈ 4.29 µM) | 0.2 µg/mL (≈ 0.55 µM) | 0.006 µg/mL (≈ 0.0165 µM) | 0.2 µg/mL (≈ 0.55 µM) | 0.05 µg/mL (≈ 0.138 µM) | 0.2 µg/mL (≈ 0.55 µM) | 0.17 mg/kg | 6.25 µg/mL (≈ 17.2 µM) | 0.0125 µg/mL (≈ 0.0344 µM) | 1.56 µg/mL (≈ 4.29 µM) | 0.2 µg/mL (≈ 0.55 µM) | 0.025 µg/mL (≈ 0.0688 µM) | MIC [30]: 1.56 µg/mL (≈ 4.29 µM); ED50 ([19]; challenge dose 6.0 x 10^6 cfu/mouse (part 1)): 0.09 mg/kg; MIC [25]: 0.78 µg/mL (≈ 2.15 µM); MIC [29]: 0.2 µg/mL (≈ 0.55 µM)
